Test results published in article PMC4865820, “Branched Peptide, B2088, Disrupts the Supramolecular Organization of Lipopolysaccharides and Sensitizes the Gram-negative Bacteria” (Scientific Reports, 2016).
Positions of bridges follow the written chain, without caps; N, C: chain ends. Residues, ends and D or L forms follow the SMILES beside them. Chains are numbered I, II in the order given.

Key:
[1] = tested on: LPS (E. coli serotype 055:B5); assay: BODIPY TR cadaverine (BC) displacement assay with LPS; type: binding; conditions: no unit in table; ED50 values in μM; 5 mM HEPES pH 7.4; duplicates; read-out: BC50 (LPS binding)
Description: To investigate the interaction of B2088 with LPS, we performed the BODIPY TR cadaverine (BC) displacement assay reported by Wood et al.[22]. The probe binds to the lipid A part of the LPS with moderate affinity and can be displaced by putative LPS-binding molecules. The method was used to probe the affinity of polycationic molecules and LPS binding proteins. First, we determined the affinity of polymyxin B (PMB), a lipopeptide cyclic antibiotic which has a high affinity for LPS. […] Figure 1a,b show the concentration-dependent displacement of LPS/lipid A-bound BC upon addition of B2088. […] To confirm the importance of branching, we determined the BC50 for a linear retrodimer having the amino acid sequence, […] (Fig. 1d). The determined value was 2-fold higher (3.9 ± 0.1 μM) than that of B2088, confirming a weaker affinity of the linear peptide.
The BC displacement assay was used to determine the ability of each peptide to bind to LPS. The florescent probe, BODIPY TR cadaverine (BC) was purchased from Molecular Probes/ Invitrogen (USA). A stock solution containing 1 mg/ml of LPS (E. coli serotype 055:B5) was prepared in dimethyl sulfoxide (DMSO) and another stock solution containing 1 mg/ml of BC dye was prepared in 5 mM HEPES buffer (pH 7.4). The optimum saturation concentration of BC:LPS ratio was standardized following the protocol provided by Wood et al. (22). From the BC stock, 240 μl was mixed with 500 μl from the LPS stock solution in 5 mM HEPES buffer (pH 7.4) to prepare 20 ml of BC:LPS mixture. Two-fold serial dilutions of each peptide in 5 mM HEPES buffer (pH 7.4) was prepared from their 1 mg/ml stock solutions to obtain a final range of 0.02–25.6 μM. The BC:LPS mixture was added to 100 μl of each peptide congener in a 1:1 ratio in each well of a 96-well black Costar™ polystyrene microtitre plate (Corning Incorporated, NY, USA). The maximum fluorescence intensity (Fmax) was determined using a mixture containing 100 μl PMB (50 μg/ml) and 100 μl BC:LPS solution, as PMB is considered the ‘gold standard’ for LPS-sequestering agents. The minimum fluorescence intensity (F0) was measured using 200 μl of BC:LPS mixture to determine the background noise for this experiment. Fluorescence measurements for each peptide (F) were determined using a microplate reader (Model: TECAN Infinite 200, Austria) with excitation and emission wavelengths set at 580 nm and 620 nm respectively. The percentage of BC displacement was then calculated using the formula: […]
The experiments were performed in duplicates and the effective concentration required for 50% displacement of BC dye (ED50) from LPS with respect to PMB was determined by curve fitting using Graphpad Prism (CA, USA). A higher ED50 value for the peptide indicates a lower affinity for LPS.

P. aeruginosa ATCC 27853 [2] = assay: microbe, parasite or virus in culture; type: cell-based; conditions: ATCC 27853, 24 h
Experimental: (§1) MIC of each peptide was determined using the microdilution method in a 96 well microtitre plates (SPL Life Sciences Co., Ltd, Korea). Two-fold serial dilutions of each peptide in Mueller-Hinton Broth (MHB) was prepared from a 1 mg/ml stock solution of the peptide in the same broth, to obtain a final concentration in the range of 0.0976–50 μg/ml in each well. Bacterial suspensions (P. aeruginosa ATCC 27853, P. aeruginosa 4877, P. aeruginosa 23155, K. pneumoniae ATCC 10031 and K. pneumoniae 4299) were prepared by suspending the overnight cultured bacteria in saline and adjusting the inoculum to ~10^8 colony forming units (CFU) per ml. A further 150-fold dilution was then prepared in MHB to achieve a final cell density of 10^5–10^6 CFU/ml. In each well, 100 μl of inoculum was mixed with the equal volume of peptides at their 2× concentration. Positive and negative controls contained 200 μl of inoculum (without any peptide) and broth alone (no peptide/inoculum) respectively. Another negative control in which MHB containing 200 μl of peptide alone in its highest concentration tested (50 μg/ml) was also included to ensure that the optical density measured in the test wells was not due to turbidity of the peptides in solution. The 96 well polystyrene plates were then incubated at 37 °C for 24 h and the optical density at 600 nm (OD600) was measured every 30 min continuously using a TECAN microplate reader (TECAN Infinite 200, Austria). All the experiments were performed in two independent duplicates and the MIC was determined as the lowest peptide concentration in which no visible growth was observed.

K. pneumoniae ATCC10031 = type: cell-based; conditions: ATCC10031, 24 h
Experimental: as §1

P. aeruginosa 23155 = type: cell-based; conditions: 23155, 24 h
Experimental: as §1

K. pneumonia 4299 = assay: microbe, parasite or virus in culture; type: cell-based, K. pneumoniae; conditions: 24 h
Experimental: as §1

P. aeruginosa ATCC 27853 [3] = type: cell-based; conditions: ATCC 27853; for Fractional inhibitory concentration of peptide/PMB, combination with Genta: first number in parenthesis; for Fractional inhibitory concentration of antibiotic, Genta combination: second number in parenthesis
Experimental: (§2) The synergism between peptides with conventional antibiotics was evaluated using checkerboard assays. For a comparison polymyxin B (PMB) was also tested against each antibiotic. From their stock solutions, two-fold dilutions of each antibiotic and peptide to 1× MIC were prepared in MHB. 50 μl of each peptide concentration was added into the wells of a 96-well polystyrene plates (SPL Life Sciences Co. Ltd, Korea) in a horizontal orientation and the same volume of each antibiotic concentration were then added in a vertical orientation. Bacterial suspensions were prepared in MHB to yield final cell density of ~10^6 CFU/ml and 100 μl of bacterial suspension was mixed with each peptide-antibiotic combinations. This procedure was repeated for wells containing 200 μl of peptide alone and 200 μl of antibiotic alone in various concentrations. The positive and negative controls contained 200 μl of inoculum and MHB alone respectively. The plates were incubated at 37 °C for 24 hours and the optical density at 600 nm (OD600) was monitored as before. Fractional inhibitory concentration index (FICI) for all antibiotic- peptide combinations was calculated through the summation of (MIC of peptide in the combination/ MIC of peptide alone) and (MIC of antibiotics in combination/MIC of antibiotic alone). The experiments were performed in two independent duplicates and the combinations that gave the lowest FICI values was reported.

P. aeruginosa DR4877/07 = type: cell-based; conditions: for Fractional inhibitory concentration of peptide/PMB, combination with Chloarm / Fractional inhibitory concentration of peptide/PMB, combination with Erythro / Fractional inhibitory concentration of peptide/PMB, combination with Levo / Fractional inhibitory concentration of peptide/PMB, combination with Tobra: first number in parenthesis; for Fractional inhibitory concentration of antibiotic, Chloarm combination / Fractional inhibitory concentration of antibiotic, Erythro combination / Fractional inhibitory concentration of antibiotic, Levo combination / Fractional inhibitory concentration of antibiotic, Tobra combination: second number in parenthesis
Experimental: as §2

P. aeruginosa ATCC 9027 = assay: Outer membrane permeability assay (NPN); type: cell-based; conditions: no unit in table; Fig. S5 axis [Peptide], μM; 10 μM NPN, 5 mM HEPES pH 7.4, ex 355/em 405 nm; average of two titrations; read-out: PC50 (peptide concentration for half-maximal NPN intensity, OM permeability)
Experimental: The ability of each peptide to permeabilize the OM of Gram-negative organisms was determined using the hydrophobic fluorescent probe 1-N-phenylnaphthylamine (NPN) as previously reported. P. aeruginosa ATCC 9027 cells from an overnight MHB culture were harvested after centrifuging at 3000 rpm for 10 minutes. The pellet was washed twice, suspended in 5 mM HEPES (N- 2-hydroxyethylpiperazine-N’-2 ethanesulfonic acid) buffer (pH 7.4) and adjusted to an OD600 of 0.200. A suspension containing 600 μl of bacteria cells and 1 μl of a concentrated stock solution of NPN was mixed into a 10 mm stirred quartz cuvette so that the final concentration of the probe remained 10 μM. Aliquots containing 1 μl of each peptide in various concentrations (100, 50, 25, 15, 10, 5, 2.5 and 1 μg/ml) were added upon NPN dye stabilization. The fluorescence intensity was monitored using a Quanta Master spectrophotometer with a constant slit width of 0.5 nm, excitation and emission wavelengths set at 355 nm and 405 nm respectively. The peptide concentration required for half-maximal intensity (PC50) was determined by sigmoidal curve fitting using Graphpad Prism software. The experimental data is average of two independent titration experiments.

| SMILES | EC50 [1] | Minimum Inhibitory Concentration against P. aeruginosa ATCC 27853 (P. aeruginosa ATCC 27853 [2]) | Minimum Inhibitory Concentration against K. pneumoniae ATCC10031 (K. pneumoniae ATCC10031) | Minimum Inhibitory Concentration against P. aeruginosa 23155 (P. aeruginosa 23155) | Minimum Inhibitory Concentration against K. pneumonia 4299 (K. pneumonia 4299) | Fractional inhibitory concentration of peptide/PMB, combination with Genta (P. aeruginosa ATCC 27853 [3]) | Fractional inhibitory concentration of antibiotic, Genta combination (P. aeruginosa ATCC 27853 [3]) | Fractional inhibitory concentration of peptide/PMB, combination with Chloarm (P. aeruginosa DR4877/07) | Fractional inhibitory concentration of peptide/PMB, combination with Erythro (P. aeruginosa DR4877/07) | Fractional inhibitory concentration of peptide/PMB, combination with Levo (P. aeruginosa DR4877/07) | Fractional inhibitory concentration of peptide/PMB, combination with Tobra (P. aeruginosa DR4877/07) | Fractional inhibitory concentration of antibiotic, Chloarm combination (P. aeruginosa DR4877/07) | Fractional inhibitory concentration of antibiotic, Erythro combination (P. aeruginosa DR4877/07) | Fractional inhibitory concentration of antibiotic, Levo combination (P. aeruginosa DR4877/07) | Fractional inhibitory concentration of antibiotic, Tobra combination (P. aeruginosa DR4877/07) | EC50 (P. aeruginosa ATCC 9027) |
| --- | --- | --- | --- | --- | --- | --- | --- | --- | --- | --- | --- | --- | --- | --- | --- | --- |
| C[C@H](NC(=O)[C@H](C)NC(=O)[C@H](CCCCN)NC(=O)[C@H](CCCNC(=N)N)NC(=O)CNC(=O)[C@@H](N)CCCNC(=N)N)C(=O)N[C@@H](CCCNC(=N)N)C(=O)N[C@@H](CCCNC(=N)N)C(=O)NCCCC[C@H](NC(=O)[C@H](CCCNC(=N)N)NC(=O)[C@H](CCCNC(=N)N)NC(=O)[C@H](C)NC(=O)[C@H](C)NC(=O)[C@H](CCCCN)NC(=O)[C@H](CCCNC(=N)N)NC(=O)CNC(=O)[C@@H](N)CCCNC(=N)N)C(=O)N[C@@H](CCCCN)C(=O)O (I: H-RGRKAARRKK-OH / II: H-RGRKAARR; amide I:9-II:C; N-terminus and C-terminus assumed) | 2.1 ± 0.2 µM | 11.5 µM | 11.5 µM | 11.5 µM | 23 µM | 0.5 | 0.06 | 0.5 | (0.5,0.5) | 0.5 | 0.5 | 0.13 | (0.5,0.5) | 0.25 | 0.25 | 21.7 ± 0.8 µM |
| N=C(N)NCCC[C@H](NC(=O)CNC(=O)[C@@H](N)CCCNC(=N)N)C(=O)N[C@@H](CCCCN)C(=O)N[C@@H](Cc1ccccc1)C(=O)N[C@@H](Cc1ccccc1)C(=O)N[C@@H](CCCNC(=N)N)C(=O)N[C@@H](CCCNC(=N)N)C(=O)NCCCC[C@H](NC(=O)[C@H](CCCNC(=N)N)NC(=O)[C@H](CCCNC(=N)N)NC(=O)[C@H](Cc1ccccc1)NC(=O)[C@H](Cc1ccccc1)NC(=O)[C@H](CCCCN)NC(=O)[C@H](CCCNC(=N)N)NC(=O)CNC(=O)[C@@H](N)CCCNC(=N)N)C(=O)N[C@@H](CCCCN)C(=O)O (I: H-RGRKFFRRKK-OH / II: H-RGRKFFRR; amide I:9-II:C; N-terminus and C-terminus assumed) | 0.93 ± 0.01 µM | 5.0 µM | 5.0 µM | 5.0 µM | 10.1 µM | (0.25,0.25) | (0.25,0.25) | 0.25 | (0.5,0.5) | (0.5,0.5) | 0.25 | 0.13 | (0.5,0.5) | (0.5,0.5) | 0.06 | 10 ± 0.3 µM |
| CC[C@H](C)[C@H](NC(=O)[C@H](CCCCN)NC(=O)[C@H](CCCNC(=N)N)NC(=O)CNC(=O)[C@@H](N)CCCNC(=N)N)C(=O)N[C@H](C(=O)N[C@@H](CCCNC(=N)N)C(=O)N[C@@H](CCCNC(=N)N)C(=O)NCCCC[C@H](NC(=O)[C@H](CCCNC(=N)N)NC(=O)[C@H](CCCNC(=N)N)NC(=O)[C@@H](NC(=O)[C@@H](NC(=O)[C@H](CCCCN)NC(=O)[C@H](CCCNC(=N)N)NC(=O)CNC(=O)[C@@H](N)CCCNC(=N)N)[C@@H](C)CC)[C@@H](C)CC)C(=O)N[C@@H](CCCCN)C(=O)O)[C@@H](C)CC (I: H-RGRKIIRRKK-OH / II: H-RGRKIIRR; amide I:9-II:C; N-terminus and C-terminus assumed) | 1.44 ± 0.02 µM | 2.7 µM | 2.7 µM | 5.3 µM | 5.3 µM | 0.5 | 0.01 | 0.5 | (0.5,0.5) | 0.5 | 0.5 | 0.25 | (0.5,0.5) | 0.13 | 0.06 | 17 ± 0.2 µM |
